The test system of the assay is H1975 cells. Nature of the assay: Trypan blue exclusion cell death assay in H1975 cells. It is filed as cell-based. Conditions: Osimertinib 100 nM, 24 hrs, FIG. 13C. Here is the method: miRNA Transfections and Osimertinib treatments miRNA stock was prepared by suspending in RNAse-free water. Cells were seeded such that they were 70-80% confluent at the time of transfection. Cells were allowed to adhere for 24 hrs and then transfected with 25 nM of miRNA inhibitors against hsa-miR184 (Sigma #HSTUD0282), hsa-miR22-3p (Sigma #HSTUD0393) or 100 nM of hsa-let7b-5p miRNA mimic (Sigma c #HMI0007) using Lipofectamine 3000 (Invitrogen #L3000001). Osimertinib (100 nM) was added an hour after transfection to cells. Cells were allowed to incubate with transfection mix for 24 hrs at 37° C., 5% CO2 and then washed with 1× PBS and trypsinized to be used for cell count and Western blotting.

The structures appear in SMILES notation.

With `C=CC(=O)Nc1cc(Nc2nccc(-c3cn(C)c4ccccc34)n2)c(OC)cc1N(C)CCN(C)C` [Osimertinib], the H1975 cell death entry was “induced”.

These data come from patent publication US20240301504A1, “MULTIANALYTE BIOMARKERS FOR LUNG CANCER” (The Curators of the University of Missouri, priority 2021, published 2024).
